Results taken from ChEMBL document CHEMBL1150401, “Genotoxicity of alpha-asarone analogues” (Bioorg Med Chem, 2008).

Assays:
L929 = test: Genotoxicity against mouse L929 cells assessed as number of micronuclei at 100 ug/ml; format: toxicity, cell-based
Salmonella typhimurium [1] = test: Mutagenic activity in Salmonella Typhimurium TA97 assessed as number of his+ revertants at 500 ug/plate after 48 to 72 hrs by Ames test in presence of S9 fraction; format: toxicity, organism-based; conditions: salmonella enterica subsp. enterica serovar typhimurium
Salmonella typhimurium [2] = test: Mutagenic activity in Salmonella Typhimurium TA97 assessed as number of his+ revertants at 100 ug/plate after 48 to 72 hrs by Ames test in absence of S9 fraction; format: toxicity, organism-based; conditions: salmonella enterica subsp. enterica serovar typhimurium
Salmonella typhimurium [3] = test: Mutagenic activity in Salmonella Typhimurium TA102 assessed as number of his+ revertants at 100 ug/plate after 48 to 72 hrs by Ames test in presence of S9 fraction; format: toxicity, organism-based; conditions: salmonella enterica subsp. enterica serovar typhimurium
Salmonella typhimurium [4] = test: Mutagenic activity in Salmonella Typhimurium TA100 assessed as number of his+ revertants at 100 ug/plate after 48 to 72 hrs by Ames test in presence of S9 fraction; format: toxicity, organism-based; conditions: salmonella enterica subsp. enterica serovar typhimurium
Salmonella typhimurium [5] = test: Mutagenic activity in Salmonella Typhimurium TA98 assessed as number of his+ revertants at 500 ug/plate after 48 to 72 hrs by Ames test in presence of S9 fraction; format: toxicity, organism-based; conditions: salmonella enterica subsp. enterica serovar typhimurium
Salmonella typhimurium [6] = test: Mutagenic activity in Salmonella Typhimurium TA97 assessed as number of his+ revertants at 100 ug/plate after 48 to 72 hrs by Ames test in presence of S9 fraction; format: toxicity, organism-based; conditions: salmonella enterica subsp. enterica serovar typhimurium
Salmonella typhimurium [7] = test: Mutagenic activity in Salmonella Typhimurium TA98 assessed as number of his+ revertants at 500 ug/plate after 48 to 72 hrs by Ames test in absence of S9 fraction; format: toxicity, organism-based; conditions: salmonella enterica subsp. enterica serovar typhimurium
Salmonella typhimurium [8] = test: Mutagenic activity in Salmonella Typhimurium TA102 assessed as number of his+ revertants at 500 ug/plate after 48 to 72 hrs by Ames test in absence of S9 fraction; format: toxicity, organism-based; conditions: salmonella enterica subsp. enterica serovar typhimurium
Salmonella typhimurium [9] = test: Mutagenic activity in Salmonella Typhimurium TA100 assessed as number of his+ revertants at 100 ug/plate after 48 to 72 hrs by Ames test in absence of S9 fraction; format: toxicity, organism-based; conditions: salmonella enterica subsp. enterica serovar typhimurium
Salmonella typhimurium [10] = test: Mutagenic activity in Salmonella Typhimurium TA102 assessed as number of his+ revertants at 500 ug/plate after 48 to 72 hrs by Ames test in presence of S9 fraction; format: toxicity, organism-based; conditions: salmonella enterica subsp. enterica serovar typhimurium
Salmonella typhimurium [11] = test: Cytotoxicity against Salmonella Typhimurium TA98 assessed as reduction in his+ revertants after 48 to 72 hrs in presence of S9 fraction; format: functional, Salmonella enterica subsp. enterica serovar Typhimurium; parameters: scale not given: the % may be the effect or the level left
Salmonella typhimurium [12] = test: Mutagenic activity in Salmonella Typhimurium TA98 assessed as number of his+ revertants at 100 ug/plate after 48 to 72 hrs by Ames test in presence of S9 fraction; format: toxicity, organism-based; conditions: salmonella enterica subsp. enterica serovar typhimurium
Salmonella typhimurium [13] = test: Mutagenic activity in Salmonella Typhimurium TA98 assessed as number of his+ revertants at 1000 ug/plate after 48 to 72 hrs by Ames test in absence of S9 fraction; format: toxicity, organism-based; conditions: salmonella enterica subsp. enterica serovar typhimurium
Salmonella typhimurium [14] = test: Mutagenic activity in Salmonella Typhimurium TA97 assessed as number of his+ revertants at 500 ug/plate after 48 to 72 hrs by Ames test in absence of S9 fraction; format: toxicity, organism-based; conditions: salmonella enterica subsp. enterica serovar typhimurium
Salmonella typhimurium [15] = test: Cytotoxicity against Salmonella Typhimurium TA97 assessed as reduction in his+ revertants after 48 to 72 hrs in presence of S9 fraction; format: functional, Salmonella enterica subsp. enterica serovar Typhimurium; parameters: scale not given: the % may be the effect or the level left
Salmonella typhimurium [16] = test: Cytotoxicity against Salmonella Typhimurium TA100 assessed as reduction in his+ revertants after 48 to 72 hrs in presence of S9 fraction; format: functional, Salmonella enterica subsp. enterica serovar Typhimurium; parameters: scale not given: the % may be the effect or the level left
Salmonella typhimurium [17] = test: Mutagenic activity in Salmonella Typhimurium TA102 assessed as number of his+ revertants at 100 ug/plate after 48 to 72 hrs by Ames test in absence of S9 fraction; format: toxicity, organism-based; conditions: salmonella enterica subsp. enterica serovar typhimurium
Salmonella typhimurium [18] = test: Mutagenic activity in Salmonella Typhimurium TA100 assessed as number of his+ revertants at 500 ug/plate after 48 to 72 hrs by Ames test in presence of S9 fraction; format: toxicity, organism-based; conditions: salmonella enterica subsp. enterica serovar typhimurium
Salmonella typhimurium [19] = test: Mutagenic activity in Salmonella Typhimurium TA100 assessed as number of his+ revertants at 1000 ug/plate after 48 to 72 hrs by Ames test in absence of S9 fraction; format: toxicity, organism-based; conditions: salmonella enterica subsp. enterica serovar typhimurium
Salmonella typhimurium [20] = test: Mutagenic activity in Salmonella Typhimurium TA98 assessed as number of his+ revertants at 1000 ug/plate after 48 to 72 hrs by Ames test in presence of S9 fraction; format: toxicity, organism-based; conditions: salmonella enterica subsp. enterica serovar typhimurium
Salmonella typhimurium [21] = test: Cytotoxicity against Salmonella Typhimurium TA102 assessed as reduction in his+ revertants after 48 to 72 hrs in presence of S9 fraction; format: functional, Salmonella enterica subsp. enterica serovar Typhimurium; parameters: scale not given: the % may be the effect or the level left
Salmonella typhimurium [22] = test: Cytotoxicity against Salmonella Typhimurium TA100 assessed as growth inhibition after 48 to 72 hrs; format: functional, Salmonella enterica subsp. enterica serovar Typhimurium; parameters: scale not given: the % may be the effect or the level left
Salmonella typhimurium [23] = test: Cytotoxicity against Salmonella Typhimurium TA97 assessed as growth inhibition after 48 to 72 hrs; format: functional, Salmonella enterica subsp. enterica serovar Typhimurium; parameters: scale not given: the % may be the effect or the level left
Salmonella typhimurium [24] = test: Mutagenic activity in Salmonella Typhimurium TA100 assessed as number of his+ revertants at 1000 ug/plate after 48 to 72 hrs by Ames test in presence of S9 fraction; format: toxicity, organism-based; conditions: salmonella enterica subsp. enterica serovar typhimurium
Salmonella typhimurium [25] = test: Mutagenic activity in Salmonella Typhimurium TA98 assessed as number of his+ revertants at 100 ug/plate after 48 to 72 hrs by Ames test in absence of S9 fraction; format: toxicity, organism-based; conditions: salmonella enterica subsp. enterica serovar typhimurium
Salmonella typhimurium [26] = test: Mutagenic activity in Salmonella Typhimurium TA97 assessed as number of his+ revertants at 1000 ug/plate after 48 to 72 hrs by Ames test in absence of S9 fraction; format: toxicity, organism-based; conditions: salmonella enterica subsp. enterica serovar typhimurium
Salmonella typhimurium [27] = test: Mutagenic activity in Salmonella Typhimurium TA102 assessed as number of his+ revertants at 1000 ug/plate after 48 to 72 hrs by Ames test in presence of S9 fraction; format: toxicity, organism-based; conditions: salmonella enterica subsp. enterica serovar typhimurium
Salmonella typhimurium [28] = test: Mutagenic activity in Salmonella Typhimurium TA100 assessed as number of his+ revertants at 500 ug/plate after 48 to 72 hrs by Ames test in absence of S9 fraction; format: toxicity, organism-based; conditions: salmonella enterica subsp. enterica serovar typhimurium
Salmonella typhimurium [29] = test: Mutagenic activity in Salmonella Typhimurium TA97 assessed as number of his+ revertants at 1000 ug/plate after 48 to 72 hrs by Ames test in presence of S9 fraction; format: toxicity, organism-based; conditions: salmonella enterica subsp. enterica serovar typhimurium
Salmonella typhimurium [30] = test: Mutagenic activity in Salmonella Typhimurium TA102 assessed as number of his+ revertants at 1000 ug/plate after 48 to 72 hrs by Ames test in absence of S9 fraction; format: toxicity, organism-based; conditions: salmonella enterica subsp. enterica serovar typhimurium
Salmonella typhimurium [31] = test: Cytotoxicity against Salmonella Typhimurium TA102 assessed as reduction in his+ revertants after 48 to 72 hrs in absence of S9 fraction; format: functional, Salmonella enterica subsp. enterica serovar Typhimurium; parameters: scale not given: the % may be the effect or the level left
Salmonella typhimurium [32] = test: Cytotoxicity against Salmonella Typhimurium TA102 assessed as growth inhibition oh his+ revertants after 48 to 72 hrs; format: functional, Salmonella enterica subsp. enterica serovar Typhimurium; parameters: scale not given: the % may be the effect or the level left

Row | SMILES | Activity (L929) [%] | Activity (Salmonella typhimurium [1]) | Activity (Salmonella typhimurium [2]) | Activity (Salmonella typhimurium [3]) | Activity (Salmonella typhimurium [4]) | Activity (Salmonella typhimurium [5]) | Activity (Salmonella typhimurium [6]) | Activity (Salmonella typhimurium [7]) | Activity (Salmonella typhimurium [8]) | Activity (Salmonella typhimurium [9]) | Activity (Salmonella typhimurium [10]) | Activity (Salmonella typhimurium [12]) | Activity (Salmonella typhimurium [13]) | Activity (Salmonella typhimurium [14]) | Activity (Salmonella typhimurium [17]) | Activity (Salmonella typhimurium [18]) | Activity (Salmonella typhimurium [19]) | Activity (Salmonella typhimurium [20]) | Activity (Salmonella typhimurium [21]) [%] | Activity (Salmonella typhimurium [24]) | further results
1 | C/C=C/c1cc(OC)c(OC)c(OC)c1 | 1.74 | 164 | 109 | 281 | 119 | 18 | 194 | 24 | 155 | 109 | 236 | 30 | 32 | 88 | 241 | 108 | 73 | 15 | 22 | 87 | Activity (Salmonella typhimurium [11]): 22%; Activity (Salmonella typhimurium [15]): 22%; Activity (Salmonella typhimurium [16]): 22%; Activity (Salmonella typhimurium [22]): 44%; Activity (Salmonella typhimurium [23]): 59%; Activity (Salmonella typhimurium [25]): 30; Activity (Salmonella typhimurium [26]): 73; Activity (Salmonella typhimurium [27]): 165; Activity (Salmonella typhimurium [28]): 88; Activity (Salmonella typhimurium [29]): 155
2 | C/C=C/c1c(OC)ccc(OC)c1OC.CC(C)CCC[C@@H](C)[C@H]1CC[C@H]2[C@@H]3CC=C4C[C@@H](O)CC[C@]4(C)[C@H]3CC[C@]12C | 1.61 | 126 | 153 | 270 | 188 | 27 | 191 | 26 | 159 | 112 | 162 | 35 | 23 | 137 | 270 | 186 | 96 | 42 | 46 | 162 | Activity (Salmonella typhimurium [30]): 90; Activity (Salmonella typhimurium [31]): 43%; Activity (Salmonella typhimurium [32]): 28%; Activity (Salmonella typhimurium [25]): 26; Activity (Salmonella typhimurium [26]): 141; Activity (Salmonella typhimurium [27]): 49; Activity (Salmonella typhimurium [28]): 104; Activity (Salmonella typhimurium [29]): 171
